We go through 14 compounds from US20170205395A1, “METHODS FOR PROVIDING PERSONALIZED MEDICINE TEST EX VIVO FOR HEMATOLOGICAL NEOPLASMS” (priority 2009, published 2017).

Read-outs that look alike come from different tables or passages of the source.

In one data set the test system is malignant CLL cells. Type of data set: cell-based. The note with it: for ex vivo efficacy in killing malignant cells compared with approved cytotoxic drugs: CLL ex vivo samples, FIG. 6; for induction of apoptosis after 24 hours: CLL whole blood samples, 24 hours incubation, FIG. 8; for ex vivo patient response: 30 μM; for ability of SSRIs to induce apoptosis in malignant CLL cells: FIG. 9.

For data set [1], the system named is patients with Chronic Lymphocytic Leukemia. The note with it: cited from earlier work.
The next data set has as its system T and NK cells. Briefly: Ex vivo Annexin V flow cytometry apoptosis assay in CLL whole blood, non-malignant cells. Type of data set: cell-based, human. The note with it: approximately 30 μM, whole blood sample from a CLL patient, FIG. 7.
A further data set deals with MOLT-4 cells. As to the kind of experiment: Apoptosis ELISA (one step sandwich ELISA of histone-complexed DNA fragments). The class given is cell-based, human. The note with it: 24 hours, FIG. 20. An excerpt: The one step sandwich ELISA is based in the quantification of histone-complexed DNA fragments (mono- and oligonucleosomes) out of the cytoplasm of cells after the induction of apoptosis or when released from necrotic cells.

For data set [2], the system named is active caspase-3 in MOLT-4 cells. As to the kind of experiment: Active caspase-3 determination by Western blot. The class given is cell-based, human. The note with it: 24 hours, FIG. 21. As to the method: Caspase-3 activation was determined using a Western blot of extracts from two acute lymphoblastic cell lines (TOM-1 and MOLT-4) exposed to increased concentrations of sertraline. […] Active caspase-3 is a protease that serves as a marker of apoptosis.

Where [3] appears, read: CLL sample, maximum concentrations, cyclophosphamide tested as its metabolite maphosphamide, FIG. 22.

On to `COc1ccc(CCN2CCC(Nc3nc4ccccc4n3Cc3ccc(F)cc3)CC2)cc1` [astemizole], for which the “ex vivo efficacy in killing malignant cells compared with approved cytotoxic drugs” value in the data set on malignant CLL cells is listed as “ex vivo efficacy similar to that of the approved cytotoxic drugs”.

Regarding `O=C(O)CCCc1ccc(N(CCCl)CCCl)cc1` [chlorambucil], in the data set on malignant CLL cells (CLL patient sample, low concentrations, lower curve of FIG. 11), the “induction of apoptosis by the drug alone” value is “did not induce much apoptosis”. The “induction of apoptosis after 24 hours” value in the data set with malignant CLL cells is listed as ~45%. Moreover, the “% of patients responding” value is recorded as 66.3 (92) % in data set [1] (CLL patients with ITRT result DI (Drug Intermediate)), 37.6 (24) % in data set [1] (CLL patients with ITRT result DR (Drug Resistant)), 85.1 (94) % in data set [1] (CLL patients with ITRT result DS (Drug Sensitive)) and 71.5 (210) % in data set [1] (all CLL patients (Total)).

Consider `O=P1(N(CCCl)CCCl)NCCCO1` (centres unmarked) [cyclophosphamide], for which the “ex vivo efficacy (resistant / sensitive)” value with malignant CLL cells is “resistant”.

Turning to `COc1cccc2c1C(=O)c1c(O)c3c(c(O)c1C2=O)C[C@@](O)(C(=O)CO)C[C@@H]3O[C@H]1C[C@H](N)[C@H](O)[C@H](C)O1` [doxorubicin], the “ex vivo patient response” value with malignant CLL cells (the two patients denoted by a star, FIG. 4) was “very effective”.

`Nc1nc(F)nc2c1ncn2[C@@H]1O[C@H](CO)[C@@H](O)[C@@H]1O` [fludarabine]: the “induction of apoptosis after 24 hours” value with malignant CLL cells was “approximately 40%”.

Turning to `CNCCC(Oc1ccc(C(F)(F)F)cc1)c1ccccc1` (centres unmarked) [fluoxetine], in the data set with malignant CLL cells, the “ex vivo efficacy in killing malignant cells compared with approved cytotoxic drugs” value is “ex vivo efficacy similar to that of the approved cytotoxic drugs” and the “ability of SSRIs to induce apoptosis in malignant CLL cells” value (“ability of SSRIs to induce apoptosis” for short) is “induce apoptosis similarly to clinically approved cytotoxic drugs”.

On to `COCCCC/C(=N\OCCN)c1ccc(C(F)(F)F)cc1` [fluvoxamine], for which, in the data set with malignant CLL cells, the “ability of SSRIs to induce apoptosis” value was “only 3 (paroxetine, fluoxetine, and sertraline) induce apoptosis similarly”.

In the case of `N=C(N)N/N=C/c1c(Cl)cccc1Cl` [guanabenz], the “ex vivo efficacy in killing malignant cells compared with approved cytotoxic drugs” value in the data set on malignant CLL cells is given as “ex vivo efficacy similar to that of the approved cytotoxic drugs”.

Regarding `O=C1c2c(O)ccc(O)c2C(=O)c2c(NCCNCCO)ccc(NCCNCCO)c21` [mitoxantrone], in the data set on malignant CLL cells (patients P1.0105, P2.0019 and P2.035, FIG. 4), the “ex vivo patient response” value is recorded as “extreme resistance ex vivo”. Moreover, the “ex vivo efficacy (resistant / sensitive)” value with malignant CLL cells (setting [3]) is “resistant”. The “induction of apoptosis after 24 hours” value with malignant CLL cells is given as ~50%.

Take `COc1ccc2[nH]c([S+]([O-])Cc3ncc(C)c(OC)c3C)nc2c1` (centres unmarked) [omeprazole]: the “apoptotic rate (Annexin V positive cells) compared with cytotoxic agents” value in the data set with malignant CLL cells (sample of one CLL patient, FIG. 12) is reported as “showed similar apoptotic rates as the cytotoxic agents”.

Take `Fc1ccc([C@@H]2CCNC[C@H]2COc2ccc3c(c2)OCO3)cc1` [paroxetine]: in the data set with malignant CLL cells, the “ex vivo efficacy in killing malignant cells compared with approved cytotoxic drugs” value was “ex vivo efficacy similar to that of the approved cytotoxic drugs” and the “ability of SSRIs to induce apoptosis” value is on record as “induce apoptosis similarly to clinically approved cytotoxic drugs”. Also, the “apoptosis in leukemic cells” value with malignant CLL cells (approximately 30 μM, whole blood sample from a CLL patient, FIG. 7) is on record as ~100%. Moreover, the “apoptosis in T and NK cells” value in the data set with T and NK cells worked out at 15%.

Turning to `CN[C@H]1CC[C@@H](c2ccc(Cl)c(Cl)c2)c2ccccc21` [sertraline], in the data set with malignant CLL cells, the “ex vivo efficacy in killing malignant cells compared with approved cytotoxic drugs” value is listed as “ex vivo efficacy similar to that of the approved cytotoxic drugs”, the “induction of apoptosis after 24 hours” value was “more than 90%” and the “ability of SSRIs to induce apoptosis” value was “induce apoptosis similarly to clinically approved cytotoxic drugs”. In the data set on malignant CLL cells (CLL patient sample, sub-maximal dose of sertraline added to chlorambucil, upper curve of FIG. 11), the “potentiation of chlorambucil-induced apoptosis” value is “greatly enhanced the level of apoptosis”. Further, the “time to eliminate all malignant cells” value with malignant CLL cells (CLL sample, FIG. 28) was ≤ 24 h. For the same compound, the “incubation with the sample required to induce maximal apoptosis” value in the data set on malignant CLL cells (CLL sample, drug washed away, apoptosis measured at 24 or 48 hours, FIG. 28) is 30 min. In addition, the “increase of the Apoptosis Index” value in the data set with MOLT-4 cells is recorded as “up to 7 fold”. Besides, the “induction of active caspase-3” value in data set [2] is reported as “dramatically induced active caspase-3”.

With `CN(C)C/C=C(/c1ccc(Br)cc1)c1cccnc1` [zimelidine], the “ability of SSRIs to induce apoptosis” value in the data set with malignant CLL cells was “only 3 (paroxetine, fluoxetine, and sertraline) induce apoptosis similarly”.

For “rituximab: antibody approved for CLL treatment”, the “ex vivo efficacy (resistant / sensitive)” value in the data set with malignant CLL cells (setting [3]) is given as “resistant”.
